Assay results as given in patent publication US11596629B2, “Compounds and methods for treating cancer” (Mayo Foundation for Medical Education and Research, priority 2017, dated 2023).
Entries after “also recorded” stand apart in the source; their conditions may differ.

Experiments:
[1] = tested on: TUBO, E0771-E2, and N202 tumor cells; assay: ER stress activation in tumor cells (p-eIF2α Ser51, CHOP levels); type: cell-based, murine; conditions: SSI-4 10-1000 nM
Description: (§1) SSI-4 induces ER stress in tumor cells. […] ER stress can provoke a therapeutically relevant adaptive immune response against malignant cells through the emission of immunostimulatory signals, or damage-associated molecular patterns (DAMPs) such as heat shock proteins and translocation of calreticulin (CRT) to the plasma membrane (17). In particular, phosphorylation of eIF2a has been reported to mediate CRT translocation (20) which is correlated with the induction of immunogenic cell death (ICD) and favorable disease outcome in a variety of malignancies (17).

[2] = tested on: live tumor cells (HER2-positive and TNBC breast cancer); assay: Plasma membrane translocation of calreticulin, flow cytometry on live tumor cells; type: cell-based, murine; conditions: 48 hour treatment
Procedure: Significance shown for 1000 nM dose (anova).
as §1

[3] = tested on: E0771-E2 cells; assay: Tumor cell phagocytosis by bone marrow-derived macrophages (BMDM) in vitro; type: cell-based, murine
Procedure: (§2) CRT behaves as a pro-phagocytic signal. The effect of SSI-4 treatment on tumor cell phagocytosis by bone marrow-derived macrophages (BMDM) in vitro was determined. SSI-4 (1000 nM) induced the highest level of phagocytosis in both TUBO and E0771-E2 cells (5 and 13%, respectively) (FIG. 2a). […] Downstream activation of T lymphocytes is dependent on the successful maturation and presentation of antigen by antigen-presenting cells such as macrophages (Woo 2015). SSI-4 driven activation of BMDMs in vitro was evaluated by measuring antigen presentation of chicken ovalbumin (cOva) by MHC class I receptors on BMDM after co-culturing them with cOva-expressing tumor cells. […] CD8+ T lymphocyte activation was evaluated in vitro using splenic T cells derived from OT-I transgenic mice which recognize ovalbumin residues 257-264 in the context of H2Kb. Proliferation and interferon gamma (IFNγ) production was measured in T lymphocytes co-cultured with both cOva-expressing tumor cells and BMDM treated with SSI-4. In addition, in order to evaluate whether the effects of SSI-4 on T lymphocyte activation were direct or mediated through a tumor-specific mechanism, concurrent analysis in SSI-4 treated T lymphocytes alone and T lymphocytes co-cultured with BMDM only was performed.

[4] = tested on: TUBO cells; assay: as above; type: cell-based, murine
Procedure: as §2

[5] = tested on: 4T1 TNBC breast cancer cells; assay: Tumor cell phagocytosis in vitro; type: cell-based; conditions: 4T1 cells
[6] = tested on: E0771 TNBC breast cancer cells; assay: Tumor cell phagocytosis in vitro; type: cell-based
Procedure: as §2

[7] = tested on: E0771-E2 cells; assay: Antigen presentation of cOva by MHC class I on BMDM co-cultured with cOva-expressing tumor cells; type: cell-based, murine
Procedure: as §2

[8] = tested on: TUBO cells; assay: as above; type: cell-based, murine
Procedure: as §2

[9] = tested on: OT-I CD8 T cells; assay: CD8+ T lymphocyte activation in vitro (proliferation, IFNγ) in co-culture with cOva-expressing tumor cells and BMDM; type: cell-based, mice; conditions: for interferon gamma (IFNγ) production in OT-I CD8 T cells / OT-I CD8 T cell proliferation: SSI-4 1000 nM
Procedure: as §2

[10] = tested on: OT-II CD4 T cells; assay: OT-II CD4 T cell proliferation in co-culture; type: cell-based; conditions: for OT-II CD4 T cell proliferation: SSI-4 1000 nM
[11] = tested on: TUBO tumors; assay: TUBO orthotopic mammary fat pad tumors, SSI-4 monotherapy; type: in vivo, BALB/c mice
Procedure: SSI-4 mediated immunomodulation in vivo was evaluated. TUBO cells were injected orthotopically into the mammary fat pad of BALB/c mice. Animals received either sham or SSI-4 (180 mg/kg) orally (continuous) when tumor burden reached 50-100 mm^3. […] Tumor tissue was harvested 14 days after treatment onset for analysis.
As SSI-4 treatment of tumor cells enhances the antigen presenting capabilities of APCs in vitro, tumor-associated recruitment of professional phagocytes in vivo including macrophages (MP) and dendritic cells (DC) was evaluated. The ratio of tumor leukocyte recruitment by comparing the ratio of cluster of differentiation 45 antigen (CD45) positive to negative cells sorted from dissociated tumor tissue within control and SSI-4 treated mice was determined. Results indicated a 10% increase in the number of tumor-associated leukocytes within SSI-4 treated animals (FIG. 3f). Next, tumor sections were stained for F4/80, a macrophage (MP) marker. […] To determine intra-tumor dendritic cell infiltration, tumors were dissociated and analyzed via flow cytometry for DCs based on CD45^+MHCII^+CD11c^hi expression. […] As tumor-associated macrophage (TAM) cells can be correlated with either a tumor-suppressive or pro-inflammatory phenotype, we sorted this population identified by MHCII^+CD11c^loF4/80^+ based on the polarization markers interleukin-1β (IL-1β) and IL-10, comparing the expression profiles from both treatment groups as well as mammary tissue extracted from non-tumor bearing mice.
SSI-4 mediated APC activation could augment T lymphocyte infiltration and activation. […] The maturation status of T lymphocytes from CD3+ cells isolated from the spleen of treated animals by comparing the ratio of CD44 to CD62L expression in either CD4 or CD8 T-cells was examined. […] The activation status of T lymphocytes isolated from digested tumors was also assessed. […] Granzyme B-positive CD8 T-cells were also enriched in SSI-4 treated tumors (FIG. 4f), another marker for activated CD8+ T lymphocytes.

[12] = tested on: E0771-E2 tumors; assay: E0771-E2 tumor bearing mice, SSI-4, PD-1 blockade and combination
Procedure: The checkpoint inhibitor was administered at 100 μg/dose (5 mg/kg) by intraperitoneal (IP) injection.
(§3) To negate the effects of PD-L1 upregulation, the combination of PD-1 antibody-mediated blockade, the receptor for PD-L1, and SSI-4, was tested.
Tumor-infiltrating (TI) leukocytes and lymphocytes were assessed by multicolor flow cytometry on dissociated treated tumor tissue extracted from E0771-E2 bearing mice on day 27 of the study. […] 5G: To determine whether anti-tumor activity of SSI-4/PD-1 combination therapy is dependent on cytotoxic CD8 T lymphocyte activity, CD8 depletion studies were performed in mice receiving either placebo or combination therapy.

[13] = tested on: TUBO tumors; assay: TUBO HER2-positive tumors, SSI-4, PD-1 blockade and combination, CD8 depletion; conditions: SSI-4 monotherapy
Procedure: Materials and methods: The checkpoint inhibitor used was a mouse anti-PD-1 that was purchased from BioXCell (catalog #BE0146). The checkpoint inhibitor was administered at 100 μg/dose (5 mg/kg) by intraperitoneal (IP) injection.
as §3

[14] = SSI-4 treated T lymphocytes alone or T lymphocyte-BMDM co-cultures
[15] = splenic CD3+ cells, CD44 to CD62L
[16] = tumor tissue 14 days after treatment onset

In the case of `CNC(=O)c1ccnc(NC(=O)N2CCC(Oc3ccccc3Cl)CC2)c1` [SSI-4, 2-{[4-(2-Chlorophenoxy)piperidine-1-carbonyl]amino}-N-methylpyridine-4-carboxamide], the “activation of ER stress (phosphorylated eIF2α at serine51 and CHOP levels)” value [1] is reported as “activation of ER stress”, the “plasma membrane translocation/expression of calreticulin (CRT)” value ([2]; 10 nM, flow cytometry on live tumor cells) is reported as “induces plasma membrane translocation of calreticulin; also recorded: potently upregulates plasma membrane expression of CRT” and the “plasma membrane translocation of calreticulin” value ([2]; 10-1000 nM, HER2-positive and TNBC breast cancer cells, significance shown for 1000 nM) is reported as “induces plasma membrane translocation of calreticulin”. For the same compound, the “SSI-4 induced phagocytosis with adjuvant CRT neutralization” value (shortened to “SSI-4 induced phagocytosis”) ([3]; CRT blocking antibody) was “reversed; also recorded: significantly abrogate”, the level of phagocytosis ([3]; SSI-4 1000 nM) was 13% and the “SSI-4 induced phagocytosis” value ([4]; CRT blocking antibody) was “reversed; also recorded: significantly abrogate”. The level of phagocytosis ([4]; SSI-4 1000 nM) was 5%, the “SSI-4 induced phagocytosis” value [5] was “reversed” and the level of phagocytosis ([5]; SSI-4 1000 nM) was 12.5%. The “SSI-4 induced phagocytosis” value [6] was “reversed”, the level of phagocytosis ([6]; SSI-4 1000 nM) was 9.4% and the “SSI-4 enhanced antigen presentation with adjuvant CRT neutralization” value [7] was “inhibited”. The antigen presentation ([7]; SSI-4 100 nM) was 5%, the antigen presentation ([7]; SSI-4 1000 nM) was 5% and the “SSI-4 enhanced antigen presentation with adjuvant CRT neutralization” value [8] was “inhibited”. The antigen presentation ([8]; SSI-4 100 nM) was 8.5%, the antigen presentation ([8]; SSI-4 1000 nM) was 8.5% and the “SSI-4 enhanced IFNγ production with CRT neutralization” value ([9]; E0771-E2 cells) was “mild (n.s.) decrease”. For the same compound, the “SSI-4 enhanced OT-I CD8 T cell proliferation with adjuvant CRT neutralization” value ([9]; E0771-E2 cells) was “inhibited”, the “SSI-4 enhanced IFNγ production with adjuvant CRT neutralization” value ([9]; MMTV-neu cells) was “inhibited; also recorded: abrogate” and the “SSI-4 enhanced OT-I CD8 T cell proliferation with adjuvant CRT neutralization” value ([9]; MMTV-neu cells) was “inhibited; also recorded: abrogate”. For the same compound, the “interferon gamma (IFNγ) production in OT-I CD8 T cells” value ([9]; triple culture with E0771-E2) was “significantly enhanced; also recorded: potently induce”, the “OT-I CD8 T cell proliferation” value ([9]; triple culture with E0771-E2 tumor cells and macrophages) was “significantly enhanced; also recorded: potently induce” and the “interferon gamma (IFNγ) production in OT-I CD8 T cells” value ([9]; triple culture with MMTV-neu) was “significantly enhanced; also recorded: potently induce”. For the same compound, the “OT-I CD8 T cell proliferation” value ([9]; triple culture with MMTV-neu tumor cells and macrophages) was “significantly enhanced; also recorded: potently induce”, the “IFNγ production without tumor cells” value [9, 14] was “No significant changes” and the “T lymphocyte proliferation without tumor cells” value [9, 14] was “could not induce T cell proliferation; also recorded: No significant changes”. The “T cell proliferation with tumor cells bearing empty vector (EV), no cOVA antigen” value ([9]; SSI-4 treatment) was “could not similarly stimulate T cell proliferation”, the “SSI-4 enhanced OT-II CD4 T cell proliferation with adjuvant CRT neutralization” value ([10]; E0771-E2) was “inhibited” and the “SSI-4 enhanced OT-II CD4 T cell proliferation with adjuvant CRT neutralization” value ([10]; MMTV-neu) was “inhibited”. The “OT-II CD4 T cell proliferation” value ([10]; E0771-E2) was “significantly enhanced”, the “OT-II CD4 T cell proliferation” value ([10]; MMTV-neu) was “significantly enhanced” and the “number of CD4+ tumor-infiltrating populations” value ([11]; IHC of tumor sections) was “significant increase”. The “number of CD8+ tumor-infiltrating populations” value ([11]; IHC of tumor sections) was “significant increase”, the “programmed death ligand-1 (PD-L1) expression in tumor” value ([11]; IHC of tumor sections, TUBO tumor bearing mice) was “induces” and the “pro-inflammatory cytokine (IL-1β) expression in tumor-associated macrophages” value ([11]; MHCII+CD11cloF4/80+ cells) was “increased expression of pro-inflammatory cytokines; also recorded: significant increase in IL-1β”. For the same compound, the overall survival ([11]; SSI-4 180 mg/kg orally (continuous) vs sham) was “appreciable increase in overall survival”, the tumor progression ([11]; SSI-4 180 mg/kg orally (continuous) vs sham, 180 mg/kg) was “slower tumor progression; also recorded: tumor progression invariably occurred” and the “tumor sizes at 30 days after onset of therapy” value ([11]; SSI-4 180 mg/kg orally (continuous), when control animals reached endpoint) was “markedly smaller tumor sizes”. For the same compound, the “effector CD4 and CD8 T lymphocytes identified by IFNγ” value ([11]; T lymphocytes from digested tumors) was “markedly increased”, the “increase in the number of tumor-associated leukocytes (CD45)” value ([11]; dissociated tumor tissue, SSI-4 vs control) was 10% and the “number of intra-tumor dendritic cells” value ([11]; flow cytometry CD45+MHCII+CD11chi, vs control treated tumors and normal mammary tissue) was “significant increase”. For the same compound, the perforin in tumors ([11]; mouse, in vivo) was “significant increase in perforin”, the “naïve T-cell numbers” value ([11]; spleen) was “concomitant decrease” and the “memory and effector T-cells among CD4 positive T cell populations” value [11, 15] was “robust induction”. For the same compound, the “memory and effector T-cells among CD8 positive T cell populations” value [11, 15] was “robust induction”, the “intra-tumor penetration of macrophages (F4/80)” value ([11]; tumor sections) was “increased intra-tumor penetration” and the “macrophages, positive F4/80 IHC staining” value ([11]; tumor sections) was 43.3±8.6 % pop. For the same compound, the Ki-67 protein staining ([11]; tumor sections, sham 47.7±6.4) was 36.7±6.2 %+nuclei, the “cleaved caspase 3 (CC3) staining, H” value ([11]; tumor sections, sham H=4.9±2.6) was 10.7±3.9 and the “cleaved caspase 3 (CC3) staining” value [11, 16] was “significant increase”. For the same compound, the “proliferative capacity of tumors via nuclear Ki67 staining” value [11, 16] was “significant reduction in the proliferative capacity”, the “Granzyme B-positive CD8 T-cells” value ([11]; tumors) was “enriched” and the “number of intra-tumor T regulatory cells (dual CD25 and FoxP3 expression)” value ([11]; tumors) was “significantly reduced; also recorded: profound decrease”. The “programmed death ligand-1 (PD-L1) expression in tumor” value ([12]; EO771-E2 tumor bearing mice) was “induces”, the “protein expression of PD-L1 in tumor-infiltrating dendritic and macrophage cells” value ([12]; FIG. 25) was “significant changes” and the “improved median survival compared to PD-1 monotherapy” value ([12]; SSI-4 monotherapy) was ~20%. The “improved median survival compared to sham” value ([12]; SSI-4 monotherapy) was “approximately 22%”, the “effector/cytotoxic CD8+ T lymphocytes in tumor” value ([12]; dissociated tumors) was “increased; also recorded: significant increase” and the “increase of intratumor infiltration of macrophages” value ([12]; flow cytometry, day 27) was “approximately 8%”. For the same compound, the “protein expression of checkpoints PD-L1 or PD-L2 in dendritic cells” value ([12]; intratumor dendritic cells) was “No significant changes”, the “PD-L1 expression on macrophages” value ([12]; intratumor macrophages) was “increased PD-L1; also recorded: strongly induce PD-L1 expression on macrophages” and the “intratumor population of T regulatory cells” value ([12]; mouse, in vivo) was “deleterious effect”. The tumor infiltrating macrophages ([12]; mouse, in vivo) was “increased the number of tumor infiltrating macrophages; also recorded: significant influx”, the “checkpoint protein expression (CTLA-4, TIM3) on CD4 and CD8 positive T lymphocytes” value ([12]; tumor-infiltrating T lymphocytes) was “upregulation of both CTLA-4 and TIM-3” and the “improved median survival compared to PD-1 monotherapy” value [13] was ~35%. The “improved median survival compared to sham” value [13] was “approximately 37%”.
